Source: PubChem BioAssay AID248 (DTP/NCI, 2004)
Values joined by “and” are separate entries in the source; they are usually repeats but may differ in a detail not shown here. Equal values may be shown once. Inconclusive results and toxic doses are left out.

Tested on: L1210 leukemia ip in BDF1 mice, survival T/C
Assay: NCI In Vivo Anticancer Drug Screen. Data for tumor model L1210 Leukemia (intraperitoneal) in B6D2F1 (BDF1) mice
Conditions: endpoint: mean survival time, higher = longer survival
Outline: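 Transplantable tumor model; survival measured in treated vs vehicle control mice. Value = treated/control.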

With `CC(=O)NC1=C(N2CC2)C(=O)C(NC(C)=O)=C(N2CC2)C1=O` the T/C (dose: 0.01 mg/kg/injection, schedule: Q01DX Z (ip), vehicle: alkali diluted with saline) was 96 % of control, the T/C (dose: 0.03 mg/kg/injection, schedule: Q01DX Z (ip), vehicle: alkali diluted with saline) was 96 % of control and the T/C (dose: 0.06 mg/kg/injection, schedule: Q01DX006 (iv), vehicle: saline) was 113 % of control. The T/C (dose: 0.06 mg/kg/injection, schedule: Q01DX Z (ip), vehicle: alkali diluted with saline) was 97 % of control and 105 % of control, the T/C (dose: 0.06 mg/kg/injection, schedule: Q01DX Z (ip), vehicle: saline) was 113 % of control and the T/C (dose: 0.12 mg/kg/injection, schedule: Q01DX Z (ip), vehicle: alkali diluted with saline) was 100 % of control and 102 % of control. For the same compound, the T/C (dose: 0.12 mg/kg/injection, schedule: Q01DX Z (oral), vehicle: carboxymethylcellulose (CMC)) was 97 % of control, the T/C (dose: 0.13 mg/kg/injection, schedule: Q01DX006 (iv), vehicle: saline) was 118 % of control and the T/C (dose: 0.24 mg/kg/injection, schedule: Q01DX Z (ip), vehicle: alkali diluted with saline) was 109 % of control. For the same compound, the T/C (dose: 0.25 mg/kg/injection, schedule: Q01DX006 (iv), vehicle: saline) was 108 % of control, the T/C (dose: 0.25 mg/kg/injection, schedule: Q01DX Z (im), vehicle: saline) was 121 % of control and the T/C (dose: 0.25 mg/kg/injection, schedule: Q01DX Z (ip), vehicle: saline) was 159 % of control. For the same compound, the T/C (dose: 0.25 mg/kg/injection, schedule: Q01DX Z (oral), vehicle: carboxymethylcellulose (CMC)) was 101 % of control, the T/C (dose: 0.25 mg/kg/injection, schedule: Q01DX Z (sc), vehicle: saline) was 102 % of control and the T/C (dose: 0.38 mg/kg/injection, schedule: Q03DX005 (oral), vehicle: saline) was 111 % of control. For the same compound, the T/C (dose: 0.38 mg/kg/injection, schedule: Q03DX006 (oral), vehicle: saline) was 106 % of control, the T/C (dose: 0.48 mg/kg/injection, schedule: Q01DX Z (ip), vehicle: alkali diluted with saline) was 97 % of control and the T/C (dose: 0.5 mg/kg/injection, schedule: Q01DX Z (ip), vehicle: saline) was 185 % of control and 201 % of control. For the same compound, the T/C (dose: 0.5 mg/kg/injection, schedule: Q01DX Z (oral), vehicle: carboxymethylcellulose (CMC)) was 100 % of control, the T/C (dose: 0.75 mg/kg/injection, schedule: Q03DX005 (oral), vehicle: saline) was 111 % of control and the T/C (dose: 0.75 mg/kg/injection, schedule: Q03DX006 (oral), vehicle: saline) was 109 % of control. For the same compound, the T/C (dose: 0.9 mg/kg/injection, schedule: Q01DX001 (oral), vehicle: saline) was 103 % of control and 104 % of control and 108 % of control, the T/C (dose: 0.9 mg/kg/injection, schedule: Q07DX002 (oral), vehicle: saline) was 108 % of control and the T/C (dose: 0.9 mg/kg/injection, schedule: Q07DX003 (oral), vehicle: saline) was 101 % of control. For the same compound, the T/C (dose: 0.96 mg/kg/injection, schedule: Q01DX Z (ip), vehicle: alkali diluted with saline) was 103 % of control, the T/C (dose: 0.96 mg/kg/injection, schedule: Q01DX Z (ip), vehicle: other) was 194 % of control and the T/C (dose: 1.0 mg/kg/injection, schedule: Q01DX006 (iv), vehicle: saline) was 170 % of control. The T/C (dose: 1.0 mg/kg/injection, schedule: Q01DX Z (ip), vehicle: carboxymethylcellulose (CMC)) was 155 % of control, the T/C (dose: 1.0 mg/kg/injection, schedule: Q01DX Z (ip), vehicle: saline) was 164 % of control and 220 % of control and the T/C (dose: 1.0 mg/kg/injection, schedule: Q01DX Z (oral), vehicle: carboxymethylcellulose (CMC)) was 109 % of control. The T/C (dose: 1.0 mg/kg/injection, schedule: Q01DX Z (oral), vehicle: saline) was 121 % of control, the T/C (dose: 1.0 mg/kg/injection, schedule: Q01DX Z (sc), vehicle: saline) was 161 % of control and the T/C (dose: 1.0 mg/kg/injection, schedule: Q#A X Z (oral), vehicle: saline) was 115 % of control. The T/C (dose: 1.25 mg/kg/injection, schedule: Q01DX Z (ip), vehicle: carboxymethylcellulose (CMC)) was 164 % of control, the T/C (dose: 1.5 mg/kg/injection, schedule: Q01DX Z (ip), vehicle: saline) was 163 % of control and the T/C (dose: 1.5 mg/kg/injection, schedule: Q03DX005 (oral), vehicle: saline) was 108 % of control. The T/C (dose: 1.5 mg/kg/injection, schedule: Q03DX006 (oral), vehicle: saline) was 124 % of control and 91 % of control, the T/C (dose: 1.75 mg/kg/injection, schedule: Q01DX001 (oral), vehicle: saline) was 104 % of control and 111 % of control and 117 % of control and the T/C (dose: 1.75 mg/kg/injection, schedule: Q07DX002 (oral), vehicle: saline) was 108 % of control. The T/C (dose: 1.75 mg/kg/injection, schedule: Q07DX003 (oral), vehicle: saline) was 117 % of control, the T/C (dose: 1.9 mg/kg/injection, schedule: Q01DX Z (ip), vehicle: alkali diluted with saline) was 101 % of control and the T/C (dose: 1.9 mg/kg/injection, schedule: Q01DX Z (ip), vehicle: other) was 122 % of control. The T/C (dose: 2.0 mg/kg/injection, schedule: Q01DX006 (iv), vehicle: saline) was 168 % of control and 174 % of control, the T/C (dose: 2.0 mg/kg/injection, schedule: Q01DX Z (im), vehicle: saline) was 113 % of control and the T/C (dose: 2.0 mg/kg/injection, schedule: Q01DX Z (ip), vehicle: saline) was 116 % of control and 117 % of control. For the same compound, the T/C (dose: 2.0 mg/kg/injection, schedule: Q01DX Z (oral), vehicle: saline) was 118 % of control, the T/C (dose: 2.2 mg/kg/injection, schedule: Q01DX Z (ip), vehicle: carboxymethylcellulose (CMC)) was 103 % of control and 114 % of control and the T/C (dose: 2.5 mg/kg/injection, schedule: Q01DX Z (ip), vehicle: carboxymethylcellulose (CMC)) was 117 % of control. For the same compound, the T/C (dose: 3.0 mg/kg/injection, schedule: Q01DX Z (ip), vehicle: saline) was 106 % of control, the T/C (dose: 3.0 mg/kg/injection, schedule: Q03DX006 (oral), vehicle: saline) was 94 % of control and 114 % of control and the T/C (dose: 3.3 mg/kg/injection, schedule: Q01DX Z (ip), vehicle: carboxymethylcellulose (CMC)) was 101 % of control and 90 % of control. The T/C (dose: 3.5 mg/kg/injection, schedule: Q01DX001 (oral), vehicle: saline) was 101 % of control and 105 % of control and 106 % of control, the T/C (dose: 3.5 mg/kg/injection, schedule: Q07DX002 (oral), vehicle: saline) was 97 % of control and the T/C (dose: 3.5 mg/kg/injection, schedule: Q07DX003 (oral), vehicle: saline) was 109 % of control. For the same compound, the T/C (dose: 4.0 mg/kg/injection, schedule: Q01DX006 (iv), vehicle: saline) was 88 % of control, the T/C (dose: 4.0 mg/kg/injection, schedule: Q01DX Z (sc), vehicle: saline) was 96 % of control and the T/C (dose: 4.9 mg/kg/injection, schedule: Q01DX Z (ip), vehicle: carboxymethylcellulose (CMC)) was 90 % of control. The T/C (dose: 6.0 mg/kg/injection, schedule: Q03DX005 (oral), vehicle: saline) was 103 % of control, the T/C (dose: 6.0 mg/kg/injection, schedule: Q03DX006 (oral), vehicle: saline) was 124 % of control and the T/C (dose: 7.0 mg/kg/injection, schedule: Q01DX001 (oral), vehicle: saline) was 106 % of control and 120 % of control. For the same compound, the T/C (dose: 7.0 mg/kg/injection, schedule: Q07DX003 (oral), vehicle: saline) was 117 % of control, the T/C (dose: 8.0 mg/kg/injection, schedule: Q01DX Z (oral), vehicle: saline) was 156 % of control and 175 % of control and the T/C (dose: 8.0 mg/kg/injection, schedule: Q#A X Z (oral), vehicle: saline) was 152 % of control. For the same compound, the T/C (dose: 16.0 mg/kg/injection, schedule: Q01DX Z (oral), vehicle: saline) was 122 % of control, the T/C (dose: 28.0 mg/kg/injection, schedule: Q07DX003 (oral), vehicle: saline) was 153 % of control and the T/C (dose: 32.0 mg/kg/injection, schedule: Q01DX Z (oral), vehicle: saline) was 95 % of control. The T/C (dose: 112.0 mg/kg/injection, schedule: Q07DX003 (oral), vehicle: saline) was 111 % of control, the T/C (dose: 224.0 mg/kg/injection, schedule: Q01DX001 (oral), vehicle: saline) was 120 % of control and the T/C (dose: 448.0 mg/kg/injection, schedule: Q01DX001 (oral), vehicle: saline) was 108 % of control. For the same compound, the T/C (dose: 600.0 mg/kg/injection, schedule: Q01DX001 (oral), vehicle: saline) was 107 % of control, the T/C (dose: 800.0 mg/kg/injection, schedule: Q01DX001 (oral), vehicle: saline) was 113 % of control and the T/C (dose: 1000.0 mg/kg/injection, schedule: Q01DX001 (oral), vehicle: saline) was 110 % of control.
In the case of `O/N=C/c1cnccn1`, the T/C (dose: 100.0 mg/kg/injection, schedule: Q01DX001 (ip), vehicle: saline) is reported as 105 % of control and the T/C (dose: 200.0 mg/kg/injection, schedule: Q01DX001 (ip), vehicle: saline) is reported as 105 % of control.
For `Nc1ccc(N=Nc2ccc(S(N)(=O)=O)cc2)cn1`, the T/C (dose: 50.0 mg/kg/injection, schedule: Q01DX001 (ip), vehicle: other) was 97 % of control, the T/C (dose: 100.0 mg/kg/injection, schedule: Q01DX001 (ip), vehicle: other) was 94 % of control and the T/C (dose: 200.0 mg/kg/injection, schedule: Q01DX001 (ip), vehicle: other) was 103 % of control. The T/C (dose: 400.0 mg/kg/injection, schedule: Q01DX001 (ip), vehicle: other) was 100 % of control.
For `COC1c2ccccc2C=CN1c1ccc([N+](=O)[O-])cc1[N+](=O)[O-]` (stereo unspecified), the T/C (dose: 100.0 mg/kg/injection, schedule: Q04DX003 (ip), vehicle: Klucel (hydroxypropylcellulose) (HPC)) was 110 % of control, the T/C (dose: 200.0 mg/kg/injection, schedule: Q04DX003 (ip), vehicle: Klucel (hydroxypropylcellulose) (HPC)) was 104 % of control and the T/C (dose: 400.0 mg/kg/injection, schedule: Q04DX003 (ip), vehicle: Klucel (hydroxypropylcellulose) (HPC)) was 108 % of control.
